From US11685726B2, “Pharmaceutical compositions of 6-(2-(2H-tetrazol-5-yl)ethyl)-6-fluorodecahydroisoquinoline-3-carboxylic acid and ester derivatives thereof” (Sea Pharmaceuticals LLC, priority 2020, dated 2023)

Experiments:
[1] = tested on: AMPA receptor; assay: Whole cell patch-clamp recording of s-AMPA induced currents in pyramidal neurons of rat brain prefrontal cortex slices; assay type: cell-based; conditions: 20 μM s-AMPA, rat brain cortex slices
Procedure: (§1) Additionally biological activity of compounds as antagonists of AMPA receptors or NMDA receptors (also called ionotropic glutamate-gated ion channels) were conducted using ex vivo functional electrophysiological assays of pyramidal neurons in slices of rat brain prefrontal cortex. Effects of test compounds cf. reference compounds were studied by whole cell patch-clamp electrophysiology recordings of s-AMPA-induced currents or NMDA-induced currents, respectively, using rat brain slice prefrontal cortex (layer V) pyramidal neurons.
Male Sprague Dawley rats were supplied by Charles River Laboratories (Wilmington, Mass. USA) and were housed 4 per cage within a temperature (20.5-23.5° C.) and humidity (30-80%) controlled environment on a 12 hour light/dark cycle with access to food (Teklad Global Soy Protein, Cat. No. T.2920X10, Envigo, Indianapolis, Ind., USA) and water ad libitum. At 4-6 weeks of age rats were terminally anaesthetized using isofluorane [(1-chloro-2,2,2-trifluoroethyl difluoromethyl ether) supplied by Baxter Healthcare Corp, Deerfield, Ill., USA], and decapitated. The brain was removed and 300 μm thick coronal prefrontal cortex (PFC) or sagittal hippocampal slices were sectioned using a Vibratome microtome. After brain removal, and throughout slicing, the tissue was submerged in ice cold […] cerebrospinal fluid (aCSF). Once slices were cut, they were transferred to a beaker containing aCSF and left at room temperature for a minimum of 1 hour before commencing electrophysiological recordings. After this period, individual slices were transferred to a recording chamber continuously perfused with aCSF at a rate of 4-6 mL/min before commencing experiment protocols. aCSF composition (in mM): NaCl, 127; KCl, 1.9; KH2PO4, 1.2; CaCl2), 2.4; MgCl2, 1.3; NaHCO3, 26; D-glucose, 10; in water equilibrated with 95% Oxygen gas-5% CO2 gas (reagent suppliers listed below). Experiments investigating NMDA currents had aCSF supplemented with 10 μM glycine (reagents suppliers listed below). All experiments were conducted following protocols with the approval of an Institutional Animal Care and Use Committee (IACUC).
Whole cell patch-clamp recordings were performed from Layer V prefrontal cortex pyramidal neurons at room temperature using the ‘visualized’ version of the patch-clamp technique. […]
(§2) All test compound experiments were carried out in the voltage-clamp recording configuration of the whole cell patch-clamp technique and all recordings performed at a holding potential of −60 mV. Recordings were monitored on a Dell personal computer (PC) running Axon pClamp software (Molecular Devices, Sunnyvale, Calif., USA) and digitized at 10 kHz. […]

[2] = Irwin neurological test battery in rats (SAD and MAD studies); assay type: in vivo, rat
Procedure: Rats were subjected to the Irwin Test Procedure of in vivo assessment of test compounds effects on neurological functions in rodents which was modified for rats. Rats were acclimated to the procedure room for at least 30 minutes. Rats were assessed for the features described below. Each rat was scored on a 0 to 3 scale with 0 representing the response in a normal animal and 3 representing a maximally impaired animal. Note that it is normal for an animal to score within the 0 to 1 range during Irwin testing. Animals were tested 55-60 min after test compound administration. Reference: Irwin, S. 20 Sep. 1968; “Comprehensive observational assessment: la. A symptomatic quantitative procedure for assessing the behavioral and physiologic state of the mouse” Psychopharmacologia 13(3): 222-257.
Single Ascending Dose (SAD) 1-day acute administration of test compound 2 by the oral PO route of administration to rats and samples collected at the timepoints described for subsequent extraction, dissolution and quantitative LCMS bioanalysis. […]
Multiple Ascending Dose (MAD) 5-day once daily administration of test compounds was done to rats and samples collected at the timepoints described for subsequent extraction, dissolution and quantitative LCMS bioanalysis. […]

[3] = tested on: NMDA receptor; assay: Whole cell patch-clamp recording of NMDA induced currents in pyramidal neurons of rat brain prefrontal cortex slices; assay type: cell-based; conditions: Tested at 30 pM (so in the source); 50 μM NMDA; rat brain cortex slices
Procedure: as §1
Male Sprague Dawley rats were supplied by Charles River Laboratories (Wilmington, Mass. USA) and were housed 4 per cage within a temperature (20.5-23.5° C.) and humidity (30-80%) controlled environment on a 12 hour light/dark cycle with access to food (Teklad Global Soy Protein, Cat. No. T.2920X10, Envigo, Indianapolis, Ind., USA) and water ad libitum. […]
as §2

[4] = Tested at 1 pM (so in the source)

O=C(O)[C@@H]1C[C@H]2CC(F)(CCc3nnn[nH]3)CC[C@H]2CN1 (stereo in doubt) [Compound 2, (3S,4aS,6R,8aR)-6-fluoro-6-[2-(1H-1,2,3,4-tetrazol-5-yl)ethyl]-decahydroisoquinoline-3-carboxylic acid]
% inhibition +/- SEM of s-AMPA induced currents in neurons [1, 4]: 21.4 ± 2.1 (n = 3) % | Irwin test observations, SAD study ([2]; oral 10-200 mg/kg, day 1, 55-60 minutes post treatment): Normal or very little change from normal was observed for many of the doses | Irwin test observations, MAD study ([2]; oral once daily 5 days, day 3 and day 5, 55-60 minutes post treatment): Normal or very little change from normal was observed for many of the doses

O=C(O)[C@@H]1C[C@H]2C[C@@](F)(CCc3nnn[nH]3)CC[C@H]2CN1 [Compound 1, (3S,4aS,6S,8aR)-6-fluoro-6-[2-(1H-1,2,3,4-tetrazol-5-yl)ethyl]-decahydroisoquinoline-3-carboxylic acid]
% inhibition +/- SEM of s-AMPA induced currents in neurons [1, 4]: 55.6 ± 5.8 (n = 3) % | % inhibition +/- SEM of s-AMPA induced currents in neurons ([1]; Tested at 10 pM (so in the source)): >90 (n = 1) % | % inhibition +/- SEM of NMDA induced currents in neurons [3]: 61.0 ± 6.3 (n = 3) %
